The values below come from DBAASP.

Among the test systems are Escherichia coli JM109; Pseudomonas aeruginosa; Staphylococcus aureus.
Holding throughout (assay): ≥ marks a high value that may be exact or a test limit, other limits are often not marked, values filed in µg/mL are converted to µM
Test [1] deals with Staphylococcus aureus ATCC 6538P.
The test system of test [2] is Acholeplasma laidlawii A-EF22.
In test [3] the test system is Pseudomonas aeruginosa PAK.
For test [4], the system named is Streptococcus gordonii Challis DL1.
Test [5] has as its system Streptococcus mitis ATCC 903.
For test [6], the system named is Streptococcus mutans UA159.
Test [7] concerns Streptococcus sanguinis NY101.
Test [8] concerns Candida albicans ATCC 10231.
In test [9] the test system is Klebsiella aerogenes ATCC 13048.
The test system of test [10] is Pseudomonas aeruginosa PA14.
Test [11] relates to Staphylococcus aureus ATCC 29231.
Test [12] relates to Escherichia coli ATCC 25922.
For test [13], the system named is Staphylococcus aureus FDA 209P.

Values after ≈ are worked out from the molar mass of the structure shown. A value given as a limit tells only on which side of the number the result lay.

Consider `CC[C@H](C)[C@H](NC(=O)[C@H](C)NC(=O)[C@H](CC(C)C)NC(=O)[C@H](CC(C)C)NC(=O)[C@H](CC(C)C)NC(=O)[C@H](C)N)C(=O)N[C@@H](CCCN=C(N)N)C(=O)N[C@@H](CCCN=C(N)N)C(=O)N[C@@H](CCCN=C(N)N)C(N)=O` [ALLLAIRRR], for which the MIC is 1.85 µM (≈ 2 µg/mL) in the test with Escherichia coli JM109, 2.77 µM (≈ 3 µg/mL) against Pseudomonas aeruginosa, 1.85 µM (≈ 2 µg/mL) in test [1] and 29.6 µM (≈ 32 µg/mL) with Staphylococcus aureus.
As for `CC(C)C[C@H](NC(=O)[C@H](CC(C)C)NC(=O)[C@H](CCCCN)NC(=O)[C@H](CC(C)C)NC(=O)[C@H](CC(C)C)NC(=O)[C@H](CC(C)C)NC(=O)[C@@H](N)CCCCN)C(=O)N[C@@H](CCCCN)C(=O)O` [KLLLKLLK], in [2], the MIC was at least 100 µM.
Consider `CC[C@H](C)[C@H](NC(=O)[C@H](C)NC(=O)[C@H](CC(C)C)NC(=O)[C@H](CC(C)C)NC(=O)[C@H](Cc1cnc[nH]1)NC(=O)[C@H](C)NC(=O)[C@H](C)NC(=O)[C@H](CC(C)C)NC(=O)[C@@H](N)CC(C)C)C(=O)NCC(=O)N[C@@H](CCCN=C(N)N)C(=O)N[C@@H](CCCN=C(N)N)C(N)=O` [LLAAHLLAIGRR], for which the MIC in the test with Escherichia coli JM109 is at least 36.8 µM; in test [1], 7.67 µM (≈ 9.99 µg/mL); in the test with Staphylococcus aureus, 49.1 µM (≈ 64 µg/mL).
As for `CC[C@H](C)[C@H](NC(=O)[C@H](Cc1ccccc1)NC(=O)CNC(=O)CNC(=O)CNC(=O)[C@H](Cc1ccccc1)NC(=O)[C@H](Cc1c[nH]c2ccccc12)NC(=O)[C@H](CCCN=C(N)N)NC(=O)[C@H](Cc1c[nH]c2ccccc12)NC(=O)[C@H](CCCN=C(N)N)NC(=O)[C@H](Cc1c[nH]c2ccccc12)NC(=O)[C@@H](N)CCCN=C(N)N)C(=O)N[C@@H](CCCCN)C(=O)N[C@@H](Cc1cnc[nH]1)C(=O)N[C@@H](Cc1ccccc1)C(=O)N[C@H](C(=O)N[C@@H](Cc1cnc[nH]1)C(=O)N[C@@H](CCCN=C(N)N)C(=O)N[C@@H](Cc1ccccc1)C(N)=O)[C@@H](C)CC` [RWRWRWFGGGFIKHFIHRF], the MIC was found to be 24.1 µM (≈ 62.5 µg/mL) in [3]; 12.4 µM (≈ 32 µg/mL) in the test with Staphylococcus aureus; 12.4 µM (≈ 32 µg/mL) in test [4]; 12.4 µM (≈ 32 µg/mL) in [5]; 3.09 µM (≈ 8 µg/mL) in test [6]; 12.4 µM (≈ 32 µg/mL) in [7].
In the case of `CC[C@H](C)[C@H](NC(=O)[C@H](Cc1ccccc1)NC(=O)CNC(=O)CNC(=O)[C@H](CO)NC(=O)[C@H](Cc1cnc[nH]1)NC(=O)[C@H](CC(C)C)NC(=O)[C@H](CC(C)C)NC(=O)[C@H](Cc1cnc[nH]1)NC(=O)[C@H](Cc1cnc[nH]1)NC(=O)[C@H](CC(C)C)NC(=O)[C@H](CCCCN)NC(=O)[C@H](CCCCN)NC(=O)[C@H](CC(C)C)NC(=O)[C@H](CC(C)C)NC(=O)[C@H](CCCN=C(N)N)NC(=O)[C@H](CCCN=C(N)N)NC(=O)[C@H](Cc1c[nH]c2ccccc12)NC(=O)[C@@H](N)CCCN=C(N)N)C(=O)N[C@@H](CCCCN)C(=O)N[C@@H](Cc1cnc[nH]1)C(=O)N[C@@H](Cc1ccccc1)C(=O)N[C@H](C(=O)N[C@@H](Cc1cnc[nH]1)C(=O)N[C@@H](CCCN=C(N)N)C(=O)N[C@@H](Cc1ccccc1)C(N)=O)[C@@H](C)CC` [RWRRLLKKLHHLLHSGGFIKHFIHRF], the MIC in test [3] was 9.6 µM (≈ 32 µg/mL); in the test on Staphylococcus aureus, 9.6 µM (≈ 32 µg/mL); in [4] it was 4.8 µM (≈ 16 µg/mL); in test [5] it was 9.6 µM (≈ 32 µg/mL); in test [6], 2.4 µM (≈ 8 µg/mL); in test [7] it was 9.6 µM (≈ 32 µg/mL).
`CC[C@H](C)[C@H](NC(=O)[C@H](CCCCN)NC(=O)[C@H](Cc1c[nH]c2ccccc12)NC(=O)[C@H](CC(C)C)NC(=O)[C@@H](NC(=O)[C@H](CCCCN)NC(=O)[C@H](Cc1c[nH]c2ccccc12)NC(=O)[C@@H](N)CC(C)C)[C@@H](C)CC)C(=O)N[C@@H](Cc1c[nH]c2ccccc12)C(=O)N[C@@H](CCCN=C(N)N)C(=O)N[C@H](C(=O)N[C@@H](CC(C)C)C(=O)N[C@@H](CCCCN)C(=O)N[C@@H](CC(N)=O)C(=O)N[C@@H](Cc1c[nH]c2ccccc12)C(=O)N[C@@H](CCCN=C(N)N)C(=O)O)C(C)C` [LWKILWKIWRVLKNWR]: the MIC in test [8] is above 57.2 µM; in [9] it was at least 57.2 µM; in test [10] it was at least 57.2 µM; in test [11], 28.6 µM (≈ 64 µg/mL).
Consider `CC[C@H](C)[C@H](NC(=O)CNC(=O)[C@H](CCCCN)NC(=O)[C@@H](NC(=O)CNC(=O)[C@H](CCCCN)NC(=O)[C@@H](NC(=O)[C@@H](NC(=O)[C@H](CC(C)C)NC(=O)[C@H](CC(=O)O)NC(=O)[C@H](CCCCN)NC(=O)[C@@H](NC(=O)CNC(=O)[C@H](CCCCN)NC(=O)CNC(=O)[C@H](C)NC(=O)[C@H](Cc1ccccc1)NC(=O)[C@H](CCCCN)NC(=O)[C@H](CO)NC(=O)[C@H](Cc1ccccc1)NC(=O)[C@@H](NC(=O)CN)[C@@H](C)CC)[C@@H](C)CC)[C@@H](C)CC)[C@@H](C)CC)C(C)C)C(=O)N[C@@H](C)C(=O)N[C@@H](CCCCN)C(=O)N[C@@H](CCC(=O)O)C(=O)N[C@@H](C)C(=O)NCC(=O)N[C@@H](CCSC)C(=O)N[C@@H](CC(=O)O)C(=O)N[C@H](C(=O)N[C@H](C(=O)N[C@@H](CCCN=C(N)N)C(=O)N[C@H](C(=O)NCC(=O)N[C@H](C(=O)N[C@@H](CC(=O)O)C(=O)N[C@H](C(=O)N[C@@H](C)C(=O)NCC(=O)N[C@H]1CSSC[C@@H](C(=O)O)NC(=O)[C@H](CCC(=O)O)NC(=O)CNC(=O)[C@H](CCCCN)NC(=O)[C@H]([C@@H](C)CC)NC(=O)[C@H](CCCCN)NC1=O)[C@@H](C)CC)[C@@H](C)CC)[C@@H](C)O)[C@@H](C)CC)C(C)C` [GIFSKFAGKGIKDLIIKGVKGIAKEAGMDVIRTGIDIAGCKIKGEC], for which the MIC in [12] worked out at 3.2 µM (≈ 15.2 µg/mL); in test [13], 4.9 µM (≈ 23.3 µg/mL).
`CC[C@H](C)[C@H](NC(=O)CNC(=O)[C@H](CCCCN)NC(=O)[C@@H](NC(=O)CNC(=O)[C@H](CCCCN)NC(=O)[C@@H](NC(=O)[C@@H](NC(=O)[C@H](CCSC)NC(=O)[C@H](CC(N)=O)NC(=O)[C@H](CCCCN)NC(=O)[C@@H](NC(=O)CNC(=O)[C@H](CCCCN)NC(=O)CNC(=O)[C@H](C)NC(=O)[C@H](Cc1ccccc1)NC(=O)[C@H](CCCCN)NC(=O)[C@H](CO)NC(=O)[C@H](Cc1ccccc1)NC(=O)[C@H](CC(C)C)NC(=O)CN)[C@@H](C)CC)[C@@H](C)CC)[C@@H](C)CC)[C@@H](C)CC)C(=O)NCC(=O)N[C@@H](CCCCN)C(=O)N[C@@H](CCC(=O)O)C(=O)N[C@H](C(=O)NCC(=O)N[C@@H](CCSC)C(=O)N[C@@H](CC(=O)O)C(=O)N[C@H](C(=O)N[C@H](C(=O)N[C@@H](CCCN=C(N)N)C(=O)N[C@H](C(=O)NCC(=O)N[C@H](C(=O)N[C@@H](CC(=O)O)C(=O)N[C@H](C(=O)N[C@@H](C)C(=O)NCC(=O)N[C@H]1CSSC[C@@H](C(=O)O)NC(=O)[C@H](CCC(=O)O)NC(=O)CNC(=O)[C@H](CCCCN)NC(=O)[C@H]([C@@H](C)CC)NC(=O)[C@H](CCCCN)NC1=O)C(C)C)[C@@H](C)CC)[C@@H](C)O)[C@@H](C)CC)C(C)C)C(C)C` [GLFSKFAGKGIKNMIIKGIKGIGKEVGMDVIRTGIDVAGCKIKGEC]: the results for the MIC in [12] and in test [13] were 1.7 µM (≈ 8.13 µg/mL) and 3 µM (≈ 14.3 µg/mL), respectively.

In general, MIC refers to the smallest concentration in the dilution series that meets the test's criterion for growth inhibition. A low value points to a more susceptible organism.
